The test system of data set [1] is wild‐type CYP450s 1A2, 2C8, 2C9, 2C19, 2D6, 3A4, and 3A5. Nature of the data set: Metabolite identification, wild‐type CYP450‐overexpressing HEK293 microsomes. The settings on record: compound presented as substrate to overexpressing CYP450 microsomes. It counts as in vitro ADME, human.
Data set [2] deals with UGT2B17. The conditions noted are these: HLM panel; ref Sun et al. 2010; cited from earlier work.
Data set [3] has as its system CYP2D6*2. The conditions noted are these: transiently expressed CYP2D6*2, bufuralol 1′‐hydroxylation; ref Sakuyama et al. (2008); cited from earlier work.
Data set [4] deals with CYP2C8*2. Details: method as in Kaspera et al. 2010. The settings on record: E. coli‐expressed CYP2C8*2 vs wild‐type; M‐1 and M‐23 formation; ref Kaspera et al. 2010; cited from earlier work.
Data set [5] has as its system CYP2C8*4. Also on record: method as in Kaspera et al. (2010). The conditions noted are these: recombinant CYP2C8*4; ref Kaspera et al. (2010); cited from earlier work.
Data set [6] concerns the target T1, CYP2C8 (Homo sapiens, UniProt P10632).
T1 sequence (P10632 1-490): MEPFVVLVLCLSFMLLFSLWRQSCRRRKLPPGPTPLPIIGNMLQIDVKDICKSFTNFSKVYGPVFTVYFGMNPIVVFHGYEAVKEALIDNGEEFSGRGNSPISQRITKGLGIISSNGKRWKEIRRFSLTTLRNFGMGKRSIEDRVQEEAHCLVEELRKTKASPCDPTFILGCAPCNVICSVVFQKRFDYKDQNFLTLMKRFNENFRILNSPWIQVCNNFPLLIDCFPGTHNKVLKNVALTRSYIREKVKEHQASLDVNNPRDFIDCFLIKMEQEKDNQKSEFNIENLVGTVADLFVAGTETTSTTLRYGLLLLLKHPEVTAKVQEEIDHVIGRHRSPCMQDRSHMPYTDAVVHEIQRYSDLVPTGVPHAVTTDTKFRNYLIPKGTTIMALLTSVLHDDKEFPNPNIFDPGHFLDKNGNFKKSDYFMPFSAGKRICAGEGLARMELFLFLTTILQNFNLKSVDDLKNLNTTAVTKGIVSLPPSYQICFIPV
The settings on record: wild‐type CYP2C8*1A; V max/K M.

The target in data set [7] is CYP2C9 (Homo sapiens, UniProt P11712). The conditions noted are these: wild‐type CYP2C9*1A; V max/K M.
In data set [8] the test system is CYP2D6^Pro34Ser, Ser486Thr.
Data set [9] relates to pooled HLM. Details: method as in Kamdem et al. 2011. The settings on record: pooled HLM treated with ketoconazole; ref Kamdem et al. 2011; cited from earlier work.
Substrate in data set [10]: C=C1C[C@@H]2[C@H](CC[C@]3(C)C(=O)CC[C@@H]23)[C@@]2(C)C=CC(=O)C=C12
Nature of the data set: cells, lysate or membranes named. The conditions noted are these: other: CYP2C8*3; normalized to relative CYP450 content; pH 7.4; 37.0 °C.

A word on the Vmax: it is the top rate of the reaction or transport when substrate is in excess.

CYP2C9, sequence (P11712 whole entry): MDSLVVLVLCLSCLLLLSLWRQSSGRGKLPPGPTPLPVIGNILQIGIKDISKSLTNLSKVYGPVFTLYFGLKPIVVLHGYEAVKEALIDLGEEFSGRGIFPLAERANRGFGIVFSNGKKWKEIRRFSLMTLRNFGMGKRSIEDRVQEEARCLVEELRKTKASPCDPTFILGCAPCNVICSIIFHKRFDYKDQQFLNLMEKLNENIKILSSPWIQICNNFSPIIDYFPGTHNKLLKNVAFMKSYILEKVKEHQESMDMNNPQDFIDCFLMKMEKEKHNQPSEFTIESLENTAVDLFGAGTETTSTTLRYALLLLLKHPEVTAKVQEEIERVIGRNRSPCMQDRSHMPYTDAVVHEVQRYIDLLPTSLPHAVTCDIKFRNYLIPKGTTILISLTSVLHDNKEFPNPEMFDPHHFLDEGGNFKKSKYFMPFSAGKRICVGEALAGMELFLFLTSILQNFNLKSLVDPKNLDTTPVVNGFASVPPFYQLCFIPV

Turning to `C[C@]12C=CC(=O)C=C1C(CO)=C[C@@H]1[C@@H]2CC[C@]2(C)C(=O)CC[C@@H]12` [6‐HME, 6‐hydroxymethylandrosta‐1,4,6‐triene‐3,17‐dione], the secondary metabolite formation entry in data set [1] is recorded as “not observed”.

In the case of `C=C1C[C@H]2[C@@H]3CC[C@@H](O)[C@@]3(C)CC[C@@H]2[C@@]2(C)C=CC(=O)C=C12` [17α‐DHE, 17α‐hydroxy‐6‐methyleneandrosta‐1,4‐dien‐3‐one], the secondary metabolite formation entry in data set [1] is recorded as “not observed”.

Consider `C=C1C[C@H]2[C@@H]3CC[C@H](O)[C@@]3(C)CC[C@@H]2[C@@]2(C)C=CC(=O)C=C12` [17β‐DHE, 17β‐hydroxy‐6‐methyleneandrosta‐1,4‐dien‐3‐one], for which the secondary metabolite formation result in [1] was “not observed”. Further, in data set [2], the “glucuronidation (V max/K M) lower in UGT2B17‐null homozygotes (*2/*2) compared to wild‐type homozygotes (*1/*1)” value is listed as 36 fold.

On to `CCc1cccc2cc(C(O)CNC(C)(C)C)oc12` (stereo not drawn) [bufuralol], for which, in [3], the “decrease in substrate affinity” value is recorded as “two‐fold”.

Regarding `COCc1c(C(C)C)nc(C(C)C)c(/C=C/[C@@H](O)C[C@@H](O)CC(=O)O)c1-c1ccc(F)cc1` [cerivastatin], the “increase in the sum of cerivastatin metabolite clearance” value in data set [4] is recorded as 53%. Also, in data set [5], the “increase of combined clearance of the M‐1 and M‐23 cerivastatin metabolites compared to wild‐type” value is “approximately 2.5 fold”.

Consider `C=C1C[C@@H]2[C@H](CC[C@]3(C)C(=O)CC[C@@H]23)[C@@]2(C)C=CC(=O)C=C12` [exemestane, 6‐methyleneandrosta‐1,4‐diene‐3,17‐dione], for which the CLINT in data set [6] came to 0.194 µL/min/mg; in [7], 0.027 µL/min/mg; in data set [8] (CYP2D6*10, V max/K M), 0.038 µL/min/mg. In data set [8] (CYP2D6*10, normalized to relative CYP450 content), this molecule returned a V max of 39 ± 6 pmol/min/mg. For the same molecule, the “increase of the K M value for EXE substrate” value in data set [8] (CYP2D6*10 vs CYP2D6*1) is reported as 82%. Moreover, the “decrease in clearance compared to CYP2D6*1” value in data set [8] (human, microsomes, pH 7.4) is given as 56%.

Consider `CC(=O)N1CCN(c2ccc(OCC3COC(Cn4ccnc4)(c4ccc(Cl)cc4Cl)O3)cc2)CC1` (stereo not drawn) [ketoconazole], for which the “effect on 6‐HME formation” value in data set [9] is “strongly inhibits”.

B1: CYP2C8^Arg139Lys, Lys399Arg (Homo sapiens; K399R/R139K) (protein)
chain: MEPFVVLVLCLSFMLLFSLWRQSCRRRKLPPGPTPLPIIGNMLQIDVKDICKSFTNFSKVYGPVFTVYFGMNPIVVFHGYEAVKEALIDNGEEFSGRGNSPISQRITKGLGIISSNGKRWKEIRRFSLTTLRNFGMGKKSIEDRVQEEAHCLVEELRKTKASPCDPTFILGCAPCNVICSVVFQKRFDYKDQNFLTLMKRFNENFRILNSPWIQVCNNFPLLIDCFPGTHNKVLKNVALTRSYIREKVKEHQASLDVNNPRDFIDCFLIKMEQEKDNQKSEFNIENLVGTVADLFVAGTETTSTTLRYGLLLLLKHPEVTAKVQEEIDHVIGRHRSPCMQDRSHMPYTDAVVHEIQRYSDLVPTGVPHAVTTDTKFRNYLIPKGTTIMALLTSVLHDDREFPNPNIFDPGHFLDKNGNFKKSDYFMPFSAGKRICAGEGLARMELFLFLTTILQNFNLKSVDDLKNLNTTAVTKGIVSLPPSYQICFIPV
Take B1: in data set [10], the Vmax was 0.000144 µmol/min/mg.

Values taken from PMC5464343 (Pharmacology Research & Perspectives, 2017).
